Assay results as given in article PMC6278284, “Synthesis of Jacaranone-Derived Nitrogenous Cyclohexadienones and Their Antiproliferative and Antiprotozoal Activities” (Molecules, 2018).
Read-outs that look alike come from different tables or passages of the source.

Key:
[1] = tested on: HCT-116 colon cancer cells; assay: XTT viability assay, HCT-116; assay type: cell-based; conditions: Homo sapiens, 72 h, read-out: metabolic active cells in % of control; for viability at 5 µg/mL: HCT 116, 5 µg/mL; for viability at 50 µg/mL: HCT 116, 50 µg/mL
Experimental: (§1) Human CCRF-CEM leukemia and MDA-MB-231 breast cancer cells lines were kept in RPMI1640 medium (Gibco®, ThermoFisher Scientific Inc., New York, NY, USA), supplemented with 2 mM L-glutamine (Gibco®), 10% heat-inactivated foetal bovine serum (FBS, Gibco®), 100 units/mL Penicillin (PAA), and 100 µg/mL Streptomycin (Gibco®) (1% Pen/Strep). HCT-116 and U251 cells were cultured in high-glucose Dulbecco’s Modified Eagle Medium (DMEM, Gibco®) containing 2 mM L-glutamine, 10% FBS, and 1% Pen/Strep. MRC-5 cells were grown in Minimum Essential Medium (MEM, Gibco®) supplemented with 2 mM L-glutamine, 10% FBS, and 1% Pen/Strep. All cells were kept in a humidified 5% CO2 atmosphere at 37 °C and passaged at 90% confluence.
(§2) A Cell Proliferation Kit II (XTT) was purchased from Sigma-Aldrich and performed as described previously and in accordance with the manufacturer’s protocol. In brief, adherent cell lines were seeded at a density of 50,000 cells/mL or 100,000 cells/mL (MRC-5) in 96 well plates (100 µL, flat bottom) and grown for 24 h before test compounds were added. Suspension cells (CCRF-CEM) were seeded at 100,000 cells/mL and test compounds were added immediately. After 72 h, XTT solution was added for another 90 min or 4 h (CCRF-CEM cells) and absorbance was measured at 490 nm with a reference wave length of 650 nm (Hidex Sense Microplate Reader 425-301, Hidex, Turku, Finland). Results are expressed as a percentage of the vehicle-treated (0.5% DMSO) control cells. Vinblastine served as the positive control (0.01 µg/mL).

[2] = tested on: MRC-5 non-tumorigenic lung fibroblasts; assay: XTT viability assay, MRC-5; assay type: cell-based, human; conditions: 72 h; for viability at 5 µg/mL / viability at 50 µg/mL: Homo sapiens, MRC5, read-out: metabolic active cells in % of control; for viability at 5 µg/mL: MRC-5, 5 µg/mL; for viability at 50 µg/mL: MRC-5, 50 µg/mL; for cytotoxicity against human MRC-5 cells (in words): 5 µg/mL
Experimental: as §1, §2

[3] = tested on: P. falciparum, strain NF54, erythrocytic stages; assay: In vitro growth inhibition assay of Plasmodium falciparum NF54 ([3H]-hypoxanthine incorporation); assay type: cell-based; conditions: for IC50: Plasmodium falciparum, strain NF54, erythrocytic stages, read-out: P. falc. IC50; for SI (IC50 in L6 cells/IC50 P. falciparum): ratio IC50 L6 / IC50 P. falciparum NF54
Experimental: In vitro activity against erythrocytic stages of P. falciparum was determined by a modified [^3H]-hypoxanthine incorporation assay using the drug-sensitive NF54 strain and the standard drug, chloroquine (Sigma C6628). Briefly, parasite cultures incubated in RPMI 1640 medium with 5% AlbuMAX^TM (without hypoxanthine) were exposed to serial drug dilutions in microtiter plates. After 48 h of incubation at 37 °C in a reduced oxygen atmosphere, 0.5 μCi [^3H]-hypoxanthine was added to each well of the plate. Cultures were incubated for a further 24 h before they were harvested onto glass-fiber filters and washed with distilled water. The radioactivity was counted using a Betaplate^TM liquid scintillation counter (Wallac, Zurich). The results were recorded as counts per minute (CPM) per well at each drug concentration and expressed as a percentage of the untreated controls. IC50 values were calculated from the sigmoidal inhibition curves using Microsoft Excel.

[4] = tested on: T. brucei rhodesiense, strain STIB900 trypomastigote forms; assay: In vitro growth inhibition assay of Trypanosoma brucei rhodesiense (Alamar Blue); assay type: cell-based; conditions: for IC50: 72 h, strain STIB900, trypomastigote forms, read-out: T.b.rhod. IC50; for SI (IC50 in L6 cells/IC50 T. b. rhodesiense): ratio IC50 L6 / IC50 T. b. rhodesiense STIB900
Experimental: Trypanosoma brucei rhodesiense, STIB 900 strain, and the standard drug, melarsoprol, were used for the assay. Minimum Essential Medium (50 μL) supplemented with 25 mM HEPES, 1g/L additional glucose, 1% MEM non-essential amino acids (100×), 0.2 mM 2-mercaptoethanol, 1 mM Na-pyruvate, and 15% heat-inactivated horse serum was added to each well of a 96-well microtiter plate. Serial drug dilutions of 11 three-fold dilution steps covering a range from 100 to 0.002 μg/mL were prepared. Then, 4 × 10^3 bloodstream forms of T. b. rhodesiense (STIB 900) in 50 μL were added to each well and the plate was incubated at 37 °C under a 5% CO2 atmosphere for 72 h. 10 μL Alamar Blue (resazurin, 12.5 mg in 100 mL double-distilled water) was then added to each well and incubation continued for a further 2–4 h. Then, the plates were read with a Spectramax Gemini XS microplate fluorometer (Molecular Devices Cooperation, Sunnyvale, CA, USA) using an excitation wavelength of 536 nm and an emission wavelength of 588 nm. The IC50 values were calculated from the sigmoidal inhibition curves using the microplate reader software, Softmax Pro (Molecular Devices Cooperation, Sunnyvale, CA, USA). Melarsoprol was used as the control.

With `O=C1C=CC(O)(CCN2C(=O)C=CC2=O)C=C1` [Compound 13b, N-[2-(1-Hydroxy-4-oxocyclohexa-2,5-dien-1-yl)ethyl]maleimide] the viability at 5 µg/mL [1] was 0.13%, the viability at 50 µg/mL [1] was -0.32% and the viability at 5 µg/mL [2] was 14.6%. The viability at 50 µg/mL [2] was 0.62%, the IC50 [3] was 4420 nM and the “SI (IC50 in L6 cells/IC50 P. falciparum)” value [3] was 6.1. For the same compound, the IC50 ([4]; Trypanosoma brucei) was 2150 nM and the “SI (IC50 in L6 cells/IC50 T. b. rhodesiense)” value [4] was 12.5.

With `O=C1C=CC(O)(CCN2C(=O)c3cccnc3C2=O)C=C1` [Compound 13f, N-[2-(1-Hydroxy-4-oxocyclohexa-2,5-dien-1-yl)ethyl]pyridine-2,3-dicarboximide] the viability at 5 µg/mL [1] was 91%, the viability at 50 µg/mL [1] was 92.8% and the “cytotoxicity against human MRC-5 cells (in words)” value (shortened to “cytotoxicity”) [2] was “did not show any cytotoxicity”. It also gave a viability at 5 µg/mL [2] of 109%, a viability at 50 µg/mL [2] of 112% and an IC50 [3] of 28000 nM. For the same compound, the “SI (IC50 in L6 cells/IC50 P. falciparum)” value [3] was 5.5 and the “SI (IC50 in L6 cells/IC50 T. b. rhodesiense)” value [4] was 3.4.

`O=C1C=CC(O)(CCN2C(=O)COCC2=O)C=C1` [Compound 13g, N-[2-(1-Hydroxy-4-oxocyclohexa-2,5-dien-1-yl)ethyl]morpholine-3,5-dione] was tested, and the viability at 5 µg/mL [1] was 96%, the viability at 50 µg/mL [1] was 68.1% and the “cytotoxicity” value [2] was “did not show any cytotoxicity”. It also gave a viability at 5 µg/mL [2] of 116%, a viability at 50 µg/mL [2] of 89.6% and an IC50 [3] of 11800 nM. The “SI (IC50 in L6 cells/IC50 P. falciparum)” value [3] was 6.6, the IC50 ([4]; Trypanosoma brucei) was greater than 10000 nM and the “SI (IC50 in L6 cells/IC50 T. b. rhodesiense)” value [4] was 5.1. It also gave an IC50 [4] of 15300 nM.

`O=C1C=CC(O)(CCN2C(=O)C3=C(CCCC3)C2=O)C=C1` [Compound 13i, N-[2-(1-Hydroxy-4-oxocyclohexa-2,5-dien-1-yl)ethyl]-3,4,5,6-tetrahydrophthalimide] gave a viability at 5 µg/mL [1] of 1.04%, a viability at 50 µg/mL [1] of 0.15% and a viability at 5 µg/mL [2] of 5.69%. It also gave a viability at 50 µg/mL [2] of 0.51%, an IC50 [3] of 1280 nM and an IC50 ([4]; Trypanosoma brucei) of 800 nM.

For `O=C1C=CC(O)(CCN2C(=O)C3CC=CCC3C2=O)C=C1` (stereo not shown) [Compound 13j, N-[2-(1-Hydroxy-4-oxocyclohexa-2,5-dien-1-yl)ethyl]-1,2,3,6-tetrahydrophthalimide], the viability at 5 µg/mL [1] was 98.6%, the viability at 50 µg/mL [1] was 63.3% and the “cytotoxicity” value [2] was “did not show any cytotoxicity”. For the same compound, the viability at 5 µg/mL [2] was 96.1%, the viability at 50 µg/mL [2] was 50.3% and the IC50 [3] was 3930 nM. The “SI (IC50 in L6 cells/IC50 P. falciparum)” value [3] was 2.0, the IC50 ([4]; Trypanosoma brucei) was 970 nM and the “SI (IC50 in L6 cells/IC50 T. b. rhodesiense)” value [4] was 8.3.

In the case of `O=C1C=CC(O)(CCN2Cc3ccccc3C2)C=C1` [Compound 14a, N-[2-(1-Hydroxy-4-oxocyclohexa-2,5-dien-1-yl)ethyl]isoindoline], the viability at 5 µg/mL [1] is reported as 97.3%, the viability at 50 µg/mL [1] is reported as 62.1% and the “cytotoxicity” value [2] is reported as “did not show any cytotoxicity”. For the same compound, the viability at 5 µg/mL [2] was 119%, the viability at 50 µg/mL [2] was 95.1% and the IC50 [3] was 2910 nM. For the same compound, the “SI (IC50 in L6 cells/IC50 P. falciparum)” value [3] was 1.0, the IC50 ([4]; Trypanosoma brucei) was 570 nM and the “SI (IC50 in L6 cells/IC50 T. b. rhodesiense)” value [4] was 4.9.

`O=C1C=CC(O)(CCN2CCOCC2)C=C1` [Compound 14c, N-[2-(1-Hydroxy-4-oxocyclohexa-2,5-dien-1-yl)ethyl]morpholine] showed a viability at 5 µg/mL [1] of 87.7%, a viability at 50 µg/mL [1] of 1.58% and a viability at 5 µg/mL [2] of 141%. The viability at 50 µg/mL [2] was 0.79%, the IC50 [3] was 10900 nM and the “SI (IC50 in L6 cells/IC50 P. falciparum)” value [3] was 0.3. The IC50 ([4]; Trypanosoma brucei) was 270 nM and the “SI (IC50 in L6 cells/IC50 T. b. rhodesiense)” value [4] was 12.9.
